# From patent US11857601B2, “Pharmaceutical composition for cancer treatment comprising fusion protein including IL-2 protein and CD80 protein and anticancer drug” (GI INNOVATION, INC., priority 2020, dated 2024)
# Tests used:
# CT26 cells = assay: mGI-101 and Guadecitabine in CT26 allotransplanted tumor model; format: in vivo, BALB/c mice; details: for tumor size level vs control: day 10, alone or + Guadecitabine
# Source text: (§1) CT26 cells were purchased from ATCC (USA) and cultured in RPMI1640 medium (Gibco) containing 10% FBS (Gibco) and 1% antibiotic/antifungal agent (Gibco). The cultured cells were harvested using trypsin (Gibco) and then suspended in PBS. In order to establish an allotransplanted tumor model, 5×10^5 of CT26 cells were subcutaneously injected into the right flank of BALB/c female mice (8-week-old) (FIG. 97).
# The tumor grafts of the mice were identified about day 7 after cell inoculation, and the mice were randomly assigned based on tumor volume (50-120 mm^3), each group including 13 mice.
# Clinical symptoms such as a disease and a behavioral change were observed once a day during the test period, and deceased animals were identified, and the mice were sacrificed when the tumor size reached a size of 4,000 mm^3. The size of the CT26 solid cancer was measured using a tumor 3D scanner (TM900, Peria, Belgium). […] The anti-tumor efficacy was evaluated as compared with the vehicle control. All statistical calculations were performed using Prism 8.0 (Graph Pad Software Inc, USA). The comparison of tumor volume measurements was made through two-way analysis of variance followed by Tukey's multiple comparison test. A p value of less than 0.05 was considered significant.
# CT-26 cancer cell line = assay: mGI101 in mice transplanted with CT-26 (Exp. Ex. 15)
# Procedure: BALB/c mice (female, 7-week-old) purchased from Orient Bio were subjected to an acclimation period of 7 days. Then, 5×10^6 cells of CT-26 cancer cell line (ATCC, USA) were mixed with 0.05 ml of […] ™ matrix phenol red-free (BD), and allotransplantation of the mixture was performed by subcutaneous administration at 0.1 ml in the right dorsal region of the mice. A certain period of time after the cancer cell transplantation, the tumor volume was measured and subjects that reached about 28 mm^3 were selected, and then the selected mice were grouped evenly based on tumor size and body weight, each group including 10 mice. Thereafter, using a disposable syringe (31G, 1 ml), hIgG4 was administered at a dose of 6 mg/kg to a negative control. For experimental groups, mGI101 at a dose of 3 mg/kg, 6 mg/kg, or 12 mg/kg was administered intravenously thereto. A total of three administrations were given once every three days after the first administration. The tumor size was measured daily.
# BT-474 cells = assay: mGI-101 and Herceptin in BT-474 xenotransplanted tumor model; format: in vivo, human
# Source text: BT-474 cells were purchased from ATCC (USA) and cultured in RPMI1640 medium (Welgene) containing 10% FBS (Gibco) and 1% antibiotic/antifungal agent (Gibco).
# In order to establish a xenotransplanted tumor model for BT-474 cells, it was subcutaneously injected into the left flank of BALB/c nu/nu female mice (7-week-old) by pulling the leather skin of the mice to make a space using a pellet transplant trochar (MP-182, Innovative Research of America, USA) so that it was located under the skin of the left flank.
# (§2) A certain period of time after cell inoculation of the tumor grafts of the mice, the tumor volume was measured for animals with no abnormalities in the health condition of the animals, and the subjects were selected so that the average of each group reached less than 60-120 mm^3, and the selected animals were assigned as evenly as possible based on tumor volume and body weight, each group including 10 animals.
# (§3) Clinical symptoms such as a disease and a behavioral change were observed once a day during the test period, and deceased animals were identified, and the mice were sacrificed when the tumor size reached a size of 4,000 mm^3.
# The tumor volume before administration of each subject was set as the value measured at the time of grouping.
# (§4) All statistical calculations were performed using Prism 8.0 (Graph Pad Software Inc, USA). The comparison of tumor volume measurements was made through two-way analysis of variance followed by Tukey's multiple comparison test. A p value of less than 0.05 was considered significant.
# Renca cells = assay: mGI-101 and Lenvatinib in Renca allotransplanted tumor model; format: in vivo, BALB/c mice
# Procedure: as §1, with “Renca” for “CT26”, “5×10^6 Renca” for “5×10^5 of CT26”, “back” for “right flank”, “(8-week-old).” for “(8-week-old) (FIG. 97).”
# A certain period of time after cell inoculation of the tumor grafts of the mice, the tumor volume was measured for animals with no abnormalities in the health condition of the animals, and the mice were randomly selected and assigned, each group including 10 mice.
# (§5) The death of the mouse, the type of general symptoms, the date of onset, and the severity of symptoms were observed once a day during the test period, and recorded for each subject.
# (§6) The tumor volume before administration of each subject was set as the value measured at the time of grouping, and the anti-tumor efficacy was evaluated as compared with the vehicle control.
# as §4
# 4T1 cells = assay: mGI-101 and Abemaciclib in 4T1 allotransplanted tumor model; format: in vivo, BALB/c mice; details: 11 mice per group
# Procedure: as §1, with “4T1” for “CT26”, “1×10^5” for “5×10^5”, “back” for “right flank”, “(8-week-old).” for “(8-week-old) (FIG. 97).”
# A certain period of time after cell inoculation of the tumor grafts of the mice, the tumor volume was measured for animals with no abnormalities in the health condition of the animals, and the mice were randomly selected and assigned, each group including 11 mice.
# as §5, §6, §4
# EMT6 cells = assay: mGI-101 and Paclitaxel in EMT6 allotransplanted tumor model; format: in vivo, BALB/c mice
# Procedure: EMT6 cells were purchased from ATCC (USA) and cultured in Waymouth MB 751/1 medium (WELGENE) containing 10% FBS (Gibco) and 1% antibiotic/antifungal agent (Gibco). The cultured cells were harvested using trypsin (Gibco), and then a high-concentration cell suspension (2×10^6 cells/0.4 mL) for 10 mice was prepare with PBS and stored on ice until injected into mice. In order to establish an allotransplanted tumor model, the skin was incised slightly away from the 4th nipple position from the upper right of the ventral region of BALB/c female mice (7-week-old), and the location of mammary fat pad at the incised site was identified, and then EMT6 cell line prepared inside the mammary fat pad was injected at 2×10^5 cells/40 uL/head.
# as §2, with “70-100” for “60-120”, “animals. As shown in Table 24 and FIG. 106, the test groups were configured and the test substances were administered.” for “animals.”
# as §3, §6, §4
# [1] = BT-474, end of the test, 10 animals per group
# [2] = mGI-101 twice a week (BIW), Lenvatinib daily, 10 mice per group
substance,measurement,setting,value
"mGI101: fusion protein: mouse CD80, Ig hinge, Fc domain, linker, IL-2 variant (2M) (R38A, F42A); SEQ ID NO: 15",tumor size level vs control,CT26 cells; mGI-101 0.6 mg/kg,tended to be lower
same,tumor size level vs control,CT26 cells; mGI-101 3 mg/kg,statistically significantly lower
same,tumor growth inhibitory effect (individual tumor sizes),"CT26 cells; mouse, in vivo",exhibited the tumor growth inhibitory effect
same,Tumor growth inhibition,"CT-26 cancer cell line; 6 mg/kg and 12 mg/kg i.v., three administrations, vs negative control (hIgG4)",significant tumor growth inhibition
same,survival rate,"CT-26 cancer cell line; 6 mg/kg i.v., vs negative control",significant improvement
same,number of mice with tumor growth inhibition rate of 30% or more,BT-474 cells; [1],5 mice
same,number of mice with tumor growth inhibition rate of 50% or more,BT-474 cells; [1],1 mice
same,number of mice with tumor growth inhibition rate of 80% or more,BT-474 cells; [1],no mouse
same,tumor size compared with the vehicle control,"BT-474 cells; mGI-101 3 mg/kg i.v. QW: day 28, Herceptin 1 mg/kg i.p. QW: day 14, 18, 21, combination: day 14 to day 28",statistically significant reduction in tumor size
same,number of mice with tumor growth inhibition rate of 30% or more,Renca cells; mGI-101 alone once a week,5 mice
same,number of mice with tumor growth inhibition rate of 50% or more,Renca cells; mGI-101 alone once a week,2 mice
same,number of mice with tumor growth inhibition rate of 80% or more,Renca cells; mGI-101 alone once a week,1 mice
same,number of mice with tumor growth inhibition rate of 30% or more,Renca cells; [2],3 mice
same,number of mice with tumor growth inhibition rate of 50% or more,Renca cells; [2],1 mice
same,number of mice with tumor growth inhibition rate of 80% or more,Renca cells; [2],no mouse
same,number of mice with tumor growth inhibition rate of 30% or more,4T1 cells,3 mice
same,number of mice with tumor growth inhibition rate of 50% or more,4T1 cells,1 mice
same,number of mice with tumor growth inhibition rate of 80% or more,4T1 cells,no mouse
same,number of mice with tumor growth inhibition rate of 30% or more,"EMT6 cells; EMT6, 10 animals per group",6 mice
same,number of mice with tumor growth inhibition rate of 50% or more,"EMT6 cells; EMT6, 10 animals per group",5 mice
same,number of mice with tumor growth inhibition rate of 80% or more,"EMT6 cells; EMT6, 10 animals per group",5 mice
same,tumor size level vs control,"EMT6 cells; day 11, mGI-101 3 mg/kg i.v. QW, Paclitaxel 10 mg/kg i.p. 7 consecutive days",statistically significantly lower
same,mice with complete remission,"EMT6 cells; day 13, 10 animals per group",2 mice
same,tumor size vs control,"EMT6 cells; day 13, mGI-101 3 mg/kg i.v. QW, Paclitaxel 10 mg/kg i.p. 7 consecutive days",statistically significantly lower
